Results from PMC8236048, “Pharmaceutical design of a delivery system for the bacteriocin lacticin 3147” (Drug Delivery and Translational Research, 2021).

Legend:
[1] = system: L. monocytogenes ATCC1916; assay: Well diffusion assay after incubation with α-chymotrypsin; format: cell-based
Protocol: α-SLN and β-SLN were filtered using a 0.2-µm PES filter, and 25 µl of each were added to the same well of a 96-well plate. About 50 µl of a 50 mg/ml solution of α-chymotrypsin was added to these wells. A blank was set up with 50-µl water instead of α-chymotrypsin. This was repeated for free peptide solutions prepared as outlined above. The 96-well plate was incubated for 3 h at 37 °C. The 96-well plate was then removed from the incubator, and 25 µl of each solution was added in triplicate to 6-mm wells on TSA (6 g/L yeast) plates inoculated with 200 µl L. monocytogenes ATCC1916. The plates were incubated at 37 °C for 24 h, after which the inhibition zones were measured using an electronic Vernier callipers.

L. lactis HP = settings: at a neutral pH; cited from earlier work
Description: Lacticin 3147 is a two-peptide (Ltnα and Ltnβ) bacteriocin produced by Lactococcus lactis DPC6577 (Fig. 1). It is classified as a lantibiotic due to the presence of lanthionine rings in its structure. The two peptides act synergistically, targeting lipid II, a precursor of peptidoglycan synthesis in Gram-positive bacteria, leading to inhibition of cell wall synthesis, pore formation, and eventual cell death. […] These masses correspond with those previously reported in the literature. Lacticin 3147′s activity against various strains including L. monocytogenes and C. difficile has been previously reported in the literature; however, for the purpose of this study, L. monocytogenes was used to establish the impact of solution composition, pH, and process ...

pepsin = molecular target: T1, pepsin (Sus scrofa, UniProt P00791); settings: cited from earlier work
T1 construct: purchased Sigma-Aldrich Ireland Ltd
Description: (§1) Gardiner et al., however, reported that α-chymotrypsin alone degrades lacticin 3147 [21]. Lacticin 3147 is heat stable, pH stable, and active at a neutral pH [9]. However, quantitative data on the amount of lacticin 3147 dissolved, i.e. its solution concentration, is rarely reported. In fact, only a handful of quantitative solubility studies on bacteriocins can be found in the literature [[ ...

trypsin = settings: cited from earlier work
Description: as §1

[2] = cited from earlier work
Description: as §1

[3] = system: L. monocytogenes ATCC1916; assay: Well diffusion assay, lacticin 3147 SLNs vs free peptide; format: cell-based; settings: 6-mm wells, 12.5 µL α + 12.5 µL β component, 0.2 µm filtered, free peptide in water at the total peptide content of the SLNs, mean ± SD
Protocol: The activity of the lacticin 3147 SLNs was evaluated using the well diffusion assay method, on TSA supplemented with 6 g/L yeast. The inhibition zones were reported in millimetre (mm) using electronic Vernier callipers. […] Wells were bored in the agar after it hardened using a sterile 6-mm cork borer. α-SLN and β-SLN were filtered using a 0.2-μm PES filter (SLNs can pass through), and 12.5 μL of each was added to the same well. The blank SLNs were used as negative controls (25 μL). […] The free peptides were filtered again using a 0.2-μm PES filter before addition to the wells to ensure sterility. All tests were performed in triplicate.

α-chymotrypsin = molecular target: T2, α-chymotrypsin (Bos taurus, UniProt P00766); assay: Enzyme degradation of lacticin 3147 by α-chymotrypsin (activity, MALDI-TOF); format: in vitro ADME; settings: 25 mg/ml α-chymotrypsin, 3 h, 37 °C; then growth curve at 400 nM peptides
T2 construct: purchased Sigma-Aldrich Ireland Ltd
Protocol: Lacticin 3147 production was confirmed by matrix-assisted laser desorption ionization-time of flight (MALDI-TOF) mass spectrometry using sinapinic acid as the matrix. About 0.7 μl of the matrix solution (sinapinic acid, 4 mg/ml in 50% acetone/50% methanol) was added to the target plate and left to evaporate (30 s) at ambient conditions. Individual peptides (Ltnα or Ltnβ) were resuspended in 70% IPA and mixed at a 1:1 volume ratio with a 10-mg/ml stock solution of sinapinic acid in 60% ACN with 0.1% TFA. About 0.3 μl of this peptide-matrix solution was then added to the matrix layer previously applied to the plate and evaporated at ambient conditions. The plate was inserted into a MALDI-TOF Ultraflex mass spectrometer (Bruker) and analysed using reflectron positive 700–3500 Da mode. 100 shots were fired at 88% intensity. This method was also used for the analyses of samples from the enzyme degradation studies.
Trypsin and α-chymotrypsin stock solutions (50 mg/ml) were resuspended in water. Pepsin (50 mg/ml) was resuspended in 0.02 M HCL. About 1 mg/ml individual solutions of Ltnα and Ltnβ in 70% IPA were filtered and diluted (1 in 20) in sterile PBS to give a final peptide concentration of 50 µg/ml. After this, 5.3 µl Ltnα and 4.6 µl Ltnβ were added to the same well of a 96-well plate. The pH of the lacticin 3147-pepsin solution was 2.29. Control wells consisting of Ltnα and Ltnβ together, Ltnα alone, and Ltnβ alone with no enzyme were included. The 96-well plate was incubated for 3 h at 37 °C to allow the enzyme to act. After incubation, the wells were filled to 50 μl with PBS and 150 μl of diluted bacterial cell culture (L. monocytogenes at an OD of 0.1) was added to each well. The final peptide concentration of 400 nM (1.31 µg/ml Ltnα, 1.14 µg/ml Ltnβ) was obtained when the wells were filled to 200 µl. […] The effect of the proteases pepsin, α-chymotrypsin, and trypsin on the lacticin 3147 peptides was determined by MALDI-TOF mass spectrometry. […] After 3 h, 1 µl was removed from each sample and it was analysed by MALDI-TOF mass spectrometry. […]

[4] = system: methicillin-resistant S. aureus (MRSA); settings: cited from earlier work
Description: (§2) Approximately 223,900 C. difficile infections and 12,800 resulting deaths were reported in the USA in 2017 [17]. Treatment failures and recurrences of infection after the use of antibiotics are increasingly common, with a 2–38% failure rate for vancomycin and 8–50% for metronidazole. A more virulent strain of C. d ...

C. difficile = settings: antimicrobial-resistant bacteria; cited from earlier work
Description: as §2

L. monocytogenes = settings: cited from earlier work
Description: as §2

T1 sequence (P00791 60-385): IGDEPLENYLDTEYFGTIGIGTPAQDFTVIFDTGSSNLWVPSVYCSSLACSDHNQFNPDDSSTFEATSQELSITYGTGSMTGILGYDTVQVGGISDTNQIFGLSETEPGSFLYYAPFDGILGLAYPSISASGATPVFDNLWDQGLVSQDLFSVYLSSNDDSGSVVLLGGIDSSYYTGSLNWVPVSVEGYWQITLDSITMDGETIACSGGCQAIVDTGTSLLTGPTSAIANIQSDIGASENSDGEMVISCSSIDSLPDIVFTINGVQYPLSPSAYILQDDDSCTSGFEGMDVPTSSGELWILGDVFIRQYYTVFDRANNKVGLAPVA

**Q.** With lacticin 3147 as the substance, how does the “zone of inhibition after incubation with α-chymotrypsin, single well” value (shortened to “zone of inhibition after incubation”) ([1]; Fig. 11, first value printed in the picture of the plate) read?
**A.** 6 mm

**Q.** What about the “zone of inhibition after incubation” value ([1]; Fig. 11, second value printed in the picture of the plate) of the same substance?
**A.** 6.1 mm

**Q.** What about the “zone of inhibition after incubation” value ([1]; Fig. 11, third value printed in the picture of the plate) of the same substance?
**A.** 6 mm

**Q.** And the “activity against L. lactis subsp. cremoris HP” value (L. lactis HP)?
**A.** active

**Q.** And the “effect of pepsin on activity” value (pepsin)?
**A.** unaffected

**Q.** What about the effect of trypsin (trypsin) of the same substance?
**A.** degraded and inactivated

**Q.** And the heat stability [2]?
**A.** heat stable

**Q.** And the pH stability [2]?
**A.** pH stable

**Q.** And the zone of inhibition [3]?
**A.** 12.9 ± 0.3 mm

**Q.** And the “activity against L. monocytogenes ATCC 1916 after incubation with α-chymotrypsin” value (α-chymotrypsin)?
**A.** growth curve similar to that of the bacterial control

**Q.** And the “activity against methicillin-resistant S. aureus (MRSA)” value [4]?
**A.** active at nanomolar concentrations

**Q.** And the “activity against C. difficile” value (C. difficile)?
**A.** active at nanomolar concentrations

**Q.** And the “activity against L. monocytogenes” value (L. monocytogenes)?
**A.** active at nanomolar concentrations
